According to the supplement of paper PMC8960247:
± gives the standard error.

Columns and labels:
621-103 (TSC2-rescued) = experiment: relative viability vs DMSO; higher = less cytotoxic; conditions: serum: 10% FBS, 72 h
621-102 (TSC2-deficient) = experiment: as above; conditions: serum: 10% FBS, 72 h
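Note: immortalized renal angiomyolipoma cells stably carrying empty vector or TSC2, dosed in 384-well plates in DMEM, viability normalized to vehicle-treated wells within each plate.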

Structure (SMILES)	relative viability (621-103 (TSC2-rescued); 0.0001 µM)	relative viability (621-103 (TSC2-rescued); 0.001 µM)	relative viability (621-103 (TSC2-rescued); 0.01 µM)	relative viability (621-103 (TSC2-rescued); 0.1 µM)	relative viability (621-103 (TSC2-rescued); 1 µM)	relative viability (621-103 (TSC2-rescued); 10 µM)	relative viability (621-102 (TSC2-deficient); 0.0001 µM)	relative viability (621-102 (TSC2-deficient); 0.001 µM)	relative viability (621-102 (TSC2-deficient); 0.01 µM)	relative viability (621-102 (TSC2-deficient); 0.1 µM)	relative viability (621-102 (TSC2-deficient); 1 µM)	relative viability (621-102 (TSC2-deficient); 10 µM)
C=CC(=O)N1CCC[C@@H](n2nc(-c3ccc(Oc4ccccc4)cc3)c3c(N)ncnc32)C1	99.6 ± 3.6%	97.1 ± 1.7%	98.8 ± 1.5%	103 ± 3%	108.4 ± 0.78%	105 ± 3.9%	108 ± 3.1%	99.6 ± 2.7%	102 ± 1.1%	108 ± 4.7%	112.7 ± 0.33%	110 ± 4.6%
CC(=O)c1c(C)c2cnc(Nc3ccc(N4CCNCC4)cn3)nc2n(C2CCCC2)c1=O	102.3 ± 0.35%	104.8 ± 0.95%	100.9 ± 0.84%	104.4 ± 0.59%	106.6 ± 0.72%	76.7 ± 1.6%	103 ± 1.6%	109.7 ± 0.24%	110 ± 2.1%	109 ± 5%	115 ± 1.2%	79 ± 4.2%
CC(C)(C(=O)NCC(F)(F)C(F)(F)F)C(=O)N[C@@H]1C(=O)Nc2ccccc2-c2ccccc21	102.1 ± 0.81%	104 ± 1.3%	104.2 ± 0.26%	106 ± 1.1%	103.7 ± 0.41%	101.8 ± 0.77%	110 ± 1.1%	115 ± 1.2%	119.5 ± 0.86%	113.8 ± 0.66%	114.3 ± 1.1%	113 ± 1.8%
CC(C)(C)Cn1c(N)nc2ccc(-c3[nH]c(C(C)(C)C)nc3-c3ccc(F)cc3)nc21	94.2 ± 2.7%	98.1 ± 2.3%	97.1 ± 3.8%	95.4 ± 1.8%	93.7 ± 0.94%	78.75 ± 0.41%	100 ± 4.4%	99.6 ± 4.4%	100 ± 2.6%	107 ± 4.4%	99.1 ± 3.6%	95.24 ± 0.28%
CC(C)CC(=O)Nc1n[nH]c2c1CN(C(=O)C1CCN(C)CC1)C2(C)C	100.3 ± 0.33%	101 ± 2%	102 ± 1.2%	102 ± 1.3%	94.4 ± 1.7%	22.5 ± 1.5%	105.5 ± 0.63%	109 ± 4%	103 ± 2.3%	93.5 ± 0.62%	79 ± 1.2%	13.5 ± 0.25%
CC(C)c1cc(-c2ccc(F)c3ccccc23)nc(N)n1	96.2 ± 4.6%	92.2 ± 4.8%	97.9 ± 1.5%	107 ± 3.5%	101.7 ± 0.2%	98.4 ± 1.7%	91.6 ± 2.5%	107 ± 7%	99.3 ± 4.8%	94.6 ± 1.2%	93.4 ± 2.1%	97.22 ± 0.33%
CC1(C)C(=O)N(CCN2CCC(C(=O)c3ccc(F)cc3)CC2)c2ccccc21	101 ± 2.5%	97.9 ± 4.5%	96.93 ± 0.26%	101 ± 4.7%	96.7 ± 2%	94.8 ± 1.9%	102.5 ± 0.86%	103 ± 1.4%	97.2 ± 4.5%	97.5 ± 1.1%	97 ± 1.2%	97.4 ± 5.7%
CC1(C)CC(=O)c2c(C(F)(F)F)nn(-c3ccc(C(N)=O)c(N[C@H]4CC[C@H](OC(=O)CN)CC4)c3)c2C1	108 ± 4.1%	111.5 ± 0.33%	82.7 ± 3.9%	7.92 ± 0.44%	6.41 ± 0.23%	7.58 ± 0.32%	63.2 ± 4.8%	65.7 ± 8%	36.9 ± 4.2%	18.7 ± 2.5%	13.6 ± 2.5%	17 ± 1.1%
CC1=C(C(=O)Nc2cc3cn[nH]c3cc2F)C(c2ccc(C(F)(F)F)cc2)CC(=O)N1 (configuration not stated)	99 ± 0.99%	98.74 ± 0.16%	101 ± 3.5%	101.2 ± 0.43%	99.79 ± 0.91%	96.4 ± 2.7%	121 ± 2.4%	104 ± 2.5%	104.73 ± 0.024%	108 ± 2%	106 ± 2.2%	85.826 ± 0.053%
CN(C)Cc1ccc(-c2nc3cccc4c3n2CCNC4=O)cc1	103.8 ± 0.6%	101.41 ± 0.034%	102 ± 1.3%	105 ± 1.6%	103 ± 0.17%	97.7 ± 0.77%	125 ± 2.7%	120.04 ± 0.068%	127 ± 1.8%	119 ± 5%	118 ± 2.8%	110 ± 1.7%
CN(c1ncccc1CNc1nc(Nc2ccc3c(c2)CC(=O)N3)ncc1C(F)(F)F)S(C)(=O)=O	106 ± 4.2%	94.4 ± 5.1%	102 ± 0.37%	100.6 ± 0.65%	97.5 ± 6.1%	38.2 ± 5.9%	99.84 ± 0.61%	105 ± 2.5%	97.1 ± 2.1%	101 ± 1.2%	94.8 ± 5.8%	47.7 ± 8.3%
CN1CCN(c2ccc([N+](=O)[O-])c3no[n+]([O-])c23)CC1	75 ± 4.3%	82.8 ± 4.1%	87.4 ± 5.2%	98.8 ± 1.6%	96 ± 2.7%	65.3 ± 5%	102 ± 5.5%	101.2 ± 1%	105 ± 1.3%	102 ± 1.3%	103 ± 1.9%	88.03 ± 0.45%
CNC(=O)c1ccc(C)c(-n2c(C)cc(OCc3ccc(F)cc3F)c(Br)c2=O)c1	102 ± 4.2%	102 ± 2.3%	99 ± 1%	97.6 ± 0.99%	99.4 ± 1.4%	95 ± 2.2%	105 ± 5.5%	101 ± 2.1%	109.06 ± 0.1%	109 ± 1.6%	97.8 ± 1.9%	103 ± 0.24%
CNCc1ccc(-c2[nH]c3cc(F)cc4c3c2CCNC4=O)cc1	104 ± 1.2%	104 ± 1.1%	104.8 ± 0.35%	107.6 ± 0.23%	111 ± 1.2%	88 ± 1.9%	130 ± 2.7%	109 ± 3.2%	128 ± 4.3%	126 ± 4%	120 ± 1.7%	98.5 ± 1.6%
COC(=O)N1CCN(Cc2cccc(NC(=O)Nc3ccc(C)nc3)c2F)CC1	103 ± 5.3%	111 ± 1.7%	110 ± 1.2%	101 ± 2.6%	108 ± 2.7%	104 ± 2.6%	93.8 ± 5.1%	94.7 ± 5.8%	97.5 ± 0.16%	96.33 ± 0.19%	85.15 ± 0.1%	95.3 ± 1.4%
COc1cc(Nc2ncc(F)c(Nc3ccc4c(n3)N(COP(=O)(O)O)C(=O)C(C)(C)O4)n2)cc(OC)c1OC	103 ± 1.3%	104.7 ± 0.53%	101 ± 1.2%	102 ± 5%	78.9 ± 2.7%	14.7 ± 0.48%	111.5 ± 1.1%	107.4 ± 0.97%	106.9 ± 0.48%	94.91 ± 0.5%	87.5 ± 2%	57.13 ± 0.27%
COc1cc(OC)c(/C=C/S(=O)(=O)Cc2ccc(OC)c(NCC(=O)O)c2)c(OC)c1	100.5 ± 0.4%	99 ± 1.7%	98.7 ± 1.2%	97.9 ± 1.8%	47.98 ± 0.052%	24.1 ± 0.81%	109 ± 2.7%	109 ± 2.2%	103.2 ± 0.43%	97.9 ± 1.3%	42 ± 1.4%	30.9 ± 0.31%
COc1cc(OC)c(NC(=O)Nc2cc(C)on2)cc1Cl	113 ± 2.2%	109 ± 3.5%	105 ± 3.8%	113 ± 2.9%	109 ± 2.6%	111 ± 2.2%	83.6 ± 4.5%	92 ± 5%	97.3 ± 3.8%	89.4 ± 4.5%	96.7 ± 7%	92.8 ± 3.9%
COc1cc2ncnc(Nc3cccc(Br)c3)c2cc1OC	102 ± 1.5%	102 ± 1.7%	103.2 ± 1%	98.4 ± 2.3%	101 ± 1.6%	92.1 ± 4.8%	96.7 ± 1%	107 ± 3.8%	115 ± 5.2%	105.5 ± 0.2%	107.6 ± 0.58%	75.6 ± 6.2%
COc1ccc(-c2cc3c(C)nc(N)nc3n([C@H]3CC[C@H](OCCO)CC3)c2=O)cn1	92.8 ± 1.8%	98.4 ± 2.6%	88.1 ± 2.7%	56.7 ± 2%	30.52 ± 0.21%	18.61 ± 0.18%	101 ± 5.6%	110 ± 2.5%	91.2 ± 5%	65.6 ± 0.94%	26.7 ± 0.68%	14.1 ± 0.26%
COc1ccc(-c2ccc3c(N4CCOCC4)nc(N4C[C@@H](C)O[C@@H](C)C4)nc3n2)cc1CO	99.9 ± 3%	88.657 ± 0.066%	102.1 ± 0.57%	104 ± 1.4%	83.1 ± 2.7%	41.9 ± 0.85%	74.3 ± 2.3%	78 ± 8.3%	65.8 ± 4.5%	81.3 ± 2.2%	70.087 ± 0.057%	27.6 ± 1.1%
